Series [1] is described as follows: safety testing of cosmetic grade cytomodulin as a topically administered ingredient. The text has this: In particular, the heptapeptide TGF-β mimic, A-N-V-A-E-N-A (SEQ ID NO: 1), termed “cytomodulin,” has been examined and tested as an ingredient in compositions with the potential for improving the condition of skin upon application; a cosmetic grade cytomodulin was first synthesized according to U.S. Pat. No. 5,661,127 and subsequently tested to ensure both its efficacy and safety as a topically administered ingredient.

The test system of a further series is TGF-β. Briefly: TGF-β like activity of cytomodulin analogs. Particulars: compared with TGF-β and cytomodulin. The text has this: As first introduced in the present inventor's U.S. Pat. No. 5,780,436, which is hereby incorporated by reference in its entirety, using cytomudulin as a guide, two initial cytomodulin analogs, L-I-A-E-A-K (SEQ ID NO: 2) and L-I-A-P-E-A (SEQ ID NO: 3) were designed, synthesized, and tested. In both peptides, -V-A-, was replaced by -I-A- and the first two N-terminal amino acid sequence of cytomodulin was replaced with leucine. In SEQ ID NO: 2, glutamic acid is at position i+3 since it is the first side-chain after the β-bend structure. In SEQ ID NO: 3, proline is at position i+3.
Analogs of SEQ ID NO: 2 and SEQ ID NO: 3 were made to further probe the sequence requirements for TGF-β like activity. To that end, the following peptides were made:
SEQ ID NOs 4-6, which are minor variants of SEQ ID NO: 2, mimicked the biological activities of TGF-β and cytomodulin. […] Alternatively, all peptides with the sequences represented by SEQ ID NOs: 9-16 mimicked at least one biological activity of TGF-β to some degree.

Residues, ends and D or L forms follow the SMILES beside them.

On to `CC(C)[C@H](NC(=O)[C@H](CC(N)=O)NC(=O)[C@H](C)N)C(=O)N[C@@H](C)C(=O)N[C@@H](CCC(=O)O)C(=O)N[C@@H](CC(N)=O)C(=O)N[C@@H](C)C(=O)O` [cytomodulin, A-N-V-A-E-N-A] (H-ANVAENA-OH), for which, in series [1], the toxicity entry is “completely non-toxic”. Consider “L-I-A-E-A-K (LIAEAK; TGF-beta mimic) [SEQ ID NO: 2, cytomodulin analog]”, for which, in the series with TGF-β, the TGF-β like activity result is reported as “at least as much TGF-β like activity as cytomodulin”. Same read-out and setting: then “L-I-A-P-E-A (LIAPEA; TGF-beta mimic) [SEQ ID NO: 3, cytomodulin analog]”, with “at least as much TGF-β like activity as cytomodulin”.

These data come from patent publication US20160151270A1, “Peptide-Based Compositions and Methods of Use” (Geoffrey Brooks Consultants LLC, priority 2014, published 2016).
